In patent US20260315431A1, “NANOMATERIAL ENCAPSULATED BIOFILM INHIBITORS FOR DENTAL CARIES TREATMENT” (THE UAB RESEARCH FOUNDATION, priority 2023, published 2026):
Entries after “also recorded” stand apart in the source; their conditions may differ.

Experiments:
[1] = Body weight of animals, HEBI / HA5 study; format: in vivo, Fischer 344 rats; settings: for Weight: 100 μM (NaF 250 ppm), 4 weeks
Procedure: Rat model of dental caries. In vivo studies of colonization and virulence of S. mutans were evaluated using a previously reported rat model of dental caries^71. Offspring of gnotobiotic Fischer 344 rats used in this experiment were bred and maintained in trexler isolators. Male and female rat pups were removed from isolators at 20 days of age and randomly assigned into 5 treatment groups of 5 rats/group in cages with filter tops. Rats were then infected with S. mutans UA159 strain by oral swabbing daily for four consecutive days with a fresh overnight culture of S. mutans UA159. Rats were provided with caries promoting Teklad Diet 305 containing […] (Harlan Laboratories, Inc., Indianapolis, IN) and sterile drinking water ad libitum. Oral swabs were taken 5 days post-infection and plated on Todd Hewitt (TH) agar plates and incubated at 37° C. in an environment of 5% CO2 in the air to confirm colonization. Rats were weighed at weaning and at the termination of the experiment. One-week post-infection, the molars of the rats were treated topically twice daily for 4 weeks with the test compounds using camel-hair brushes. […] Each sample was serially diluted, plated on blood agar plates (BAP) and mitis-salivarius (MS) agar plates and incubated in an environment of 5% CO2 at 37° C. to quantify the level of total bacteria and S. mutans present in the plaque. […] After drying, the mandibles were sectioned and scored for caries activity using the Keyes method^68. Caries scores were recorded for the buccal, sulcal and proximal molar surfaces individually so that differences among the surfaces can be distinguished. Statistical significance in the mean caries scores, colony-forming units (CFUs)/mandible and body weights between groups of rats were determined by one-way analysis of variance (ANOVA) with the Tukey-Kramer multiple comparison test using the InStat program (Graphpad Software, San Diego, CA). […]

[2] = system: S. gordonii DL1; assay: Planktonic growth, S. gordonii DL1 (OD470); format: cell-based, Streptococcus gordonii
Procedure: The bacterial strains, S. mutans UA159, S. gordonii DL1, and S. sanguinis SK36 were inoculated statically at 37° C. under 5% CO2 in Todd Hewitt Broth (THB) for 24 h. The cultures were then diluted with fresh THB (1:5) and reinoculated until optical density at 470 nm (OD470) reached 1. The optical density was read using BioTek 800TS microplate reader at 470 nm for bacterial growth and 562 nm for biofilm stained with crystal violet. Data was plotted in Graphpad Prism9.
(§1) S. mutans, S. gordonii, and S. sanguinis growth assays. Effects of compounds on S. mutans and commensal bacterial growth were evaluated using the growth assay as described^69. S. mutans UA159, S. gordonii DL1, S. sanguinis SK36, cultures were grown for 24 h under 5% CO2 at 37° C. These cultures were then reinoculated with fresh THB (1:5) until OD470=1 when the bacteria were ready to be used. Different concentrations of the inhibitor were assayed in chemically defined media (CDM) with 1% of the bacteria, 1% sucrose and 1% DMSO in 96 well plates. The 96 well plates were incubated under 5% CO2 at 37° C. for 16 h. Growth of the bacteria was read after 16 h at OD470. Each assay was carried out at least in triplicate.
All bacterial strains (S. mutans UA159, S. gordonii DL1, and S. sanguinis SK36) were inoculated statically at 37° C. under 5% CO2 environment in Todd Hewitt Broth (THB) for 24 h^[61]. The cultures were then diluted with fresh THB (1:5) and reinoculated until the optical density at 470 nm reaches 1. The optical density was read using BioTek 800 TS absorbance reader at 470 nm for bacterial growth and 562 nm for biofilm stained with crystal violet. Data was plotted in Prism 10.0.2.
as §1, with “Effects” for “S. mutans, S. gordonii, and S. sanguinis growth assays. Effects”, “PEHA5, PEHA6, HA5 or HA6” for “compounds”, “described^[62].” for “described^69.”, “PEHA5, PEHA6, HA5 or HA6” for “inhibitor”, “CDM” for “chemically defined media (CDM)”

With `O=C1/C(=C/c2cc(O)c(O)cc2O)Oc2ccccc21` [HA5, 2-[(2′,4′,5′-Trihydroxyphenyl)methylidene]-2,3-dihydro-1-benzofuran-3-one] the Weight [1] was 137 ± 13 g, the “weight loss” value ([1]; 4-week treatment, 100 μM) was “did not experience any weight loss” and the “planktonic growth of S. gordonii” value ([2]; 25 μM) was “did not affect the planktonic growth”. For the same molecule, the “growth of S. gordonii” value ([2]; 50 μM and 100 μM (100 μM)) was “did not inhibit the growth; also recorded: does not inhibit the growth”, the “dose without growth inhibition of commensals (100 μM) relative to biofilm IC50” value ([2]; DL1) was 14 fold and the “growth of S. gordonii” value ([2]; at biofilm inhibiting doses) was “without affecting the growth”.

With `O=C1/C(=C/c2cc(O)c(O)c(O)c2)Oc2ccccc21` [HA6, 2-[(3′,4′,5′-Trihydroxyphenyl)methylidene]-2,3-dihydro-1-benzofuran-3-one] the “growth inhibition of S. gordonii” value ([2]; 25 μM and 50 μM) was “about 10%” and the “growth of S. gordonii” value ([2]; at biofilm inhibiting doses) was “without affecting the growth”.

For `[F-].[Na+]` [NaF, reference compound], the Weight [1] was 161 ± 13 g.
